Assay results reported in PubChem BioAssay (NCI).
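Briefly, cells in 96-well plates were exposed to five compound concentrations for 48 h, and endpoints were estimated by linear interpolation. GI50: concentration for 50% inhibition of growth. TGI: total growth inhibition.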

How the values were obtained:
Assay in all cases: NCI tumour cell line growth inhibition, 48 h
OVCAR-8 ovarian = test system: OVCAR-8 ovarian
UO-31 renal = test system: UO-31 renal
HL-60(TB) leukemia = test system: HL-60(TB) leukemia
HS 578T breast = test system: HS 578T breast
CCRF-CEM leukemia = test system: CCRF-CEM leukemia
A549 NSCLC = test system: A549 NSCLC
SF-539 CNS = test system: SF-539 CNS
SF-268 CNS = test system: SF-268 CNS
UACC-257 melanoma = test system: UACC-257 melanoma
OVCAR-3 ovarian = test system: OVCAR-3 ovarian
OVCAR-4 ovarian = test system: OVCAR-4 ovarian
NCI-H23 lung = test system: NCI-H23 lung
TK-10 renal = test system: TK-10 renal
OVCAR-5 ovarian = test system: OVCAR-5 ovarian
PC-3 prostate = test system: PC-3 prostate
RPMI-8226 leukemia = test system: RPMI-8226 leukemia
HT29 colon = test system: HT29 colon
SK-OV-3 ovarian = test system: SK-OV-3 ovarian
HCT-15 colon = test system: HCT-15 colon
MALME-3M melanoma = test system: MALME-3M melanoma
SN12C renal = test system: SN12C renal
NCI-H522 lung = test system: NCI-H522 lung
MDA-MB-435 = test system: MDA-MB-435
LOX IMVI melanoma = test system: LOX IMVI melanoma
MCF7 breast = test system: MCF7 breast
NCI/ADR-RES ovarian = test system: NCI/ADR-RES ovarian
MOLT-4 leukemia = test system: MOLT-4 leukemia
NCI-H460 lung = test system: NCI-H460 lung
EKVX NSCLC = test system: EKVX NSCLC
HOP-62 NSCLC = test system: HOP-62 NSCLC
CAKI-1 renal = test system: CAKI-1 renal
HCC-2998 colon = test system: HCC-2998 colon
SNB-75 CNS = test system: SNB-75 CNS
SK-MEL-2 melanoma = test system: SK-MEL-2 melanoma
SK-MEL-5 melanoma = test system: SK-MEL-5 melanoma
MDA-MB-231 breast = test system: MDA-MB-231 breast
786-0 renal = test system: 786-0 renal
SNB-19 CNS = test system: SNB-19 CNS
IGROV1 ovarian = test system: IGROV1 ovarian
SW-620 colon = test system: SW-620 colon
BT-549 breast = test system: BT-549 breast
UACC-62 melanoma = test system: UACC-62 melanoma
COLO 205 colon = test system: COLO 205 colon
DU-145 prostate = test system: DU-145 prostate
SK-MEL-28 melanoma = test system: SK-MEL-28 melanoma
SR leukemia = test system: SR leukemia
KM12 colon = test system: KM12 colon
RXF 393 renal = test system: RXF 393 renal
NCI-H226 lung = test system: NCI-H226 lung
T-47D breast = test system: T-47D breast
ACHN renal = test system: ACHN renal
SF-295 CNS = test system: SF-295 CNS
HOP-92 NSCLC = test system: HOP-92 NSCLC
U251 CNS = test system: U251 CNS
K-562 leukemia = test system: K-562 leukemia
M14 melanoma = test system: M14 melanoma

SMILES: CC(C)(C)C(=O)OCOP(=O)(OCOC(=O)C(C)(C)C)C1CCCN(O)C1=O (configuration not stated)
- GI50 (OVCAR-8 ovarian): 0.305 µM
- TGI (OVCAR-8 ovarian): 8.91 µM
- GI50 (UO-31 renal): 0.306 µM
- TGI (UO-31 renal): 6.41 µM
- GI50 (HL-60(TB) leukemia): 0.538 µM
- TGI (HL-60(TB) leukemia): 3.53 µM
- GI50 (HS 578T breast): 0.314 µM
- TGI (HS 578T breast): 8.27 µM
- GI50 (CCRF-CEM leukemia): 0.185 µM
- TGI (CCRF-CEM leukemia): 2.3 µM
- GI50 (A549 NSCLC): 0.637 µM
- TGI (A549 NSCLC): > 100 µM
- GI50 (SF-539 CNS): 1.52 µM
- TGI (SF-539 CNS): 11.8 µM
- GI50 (SF-268 CNS): 0.441 µM
- TGI (SF-268 CNS): 20.2 µM
- GI50 (UACC-257 melanoma): 1.19 µM
- TGI (UACC-257 melanoma): 13.5 µM
- GI50 (OVCAR-3 ovarian): 0.559 µM
- TGI (OVCAR-3 ovarian): > 100 µM
- GI50 (OVCAR-4 ovarian): 0.508 µM
- TGI (OVCAR-4 ovarian): 59.7 µM
- GI50 (NCI-H23 lung): 0.564 µM
- TGI (NCI-H23 lung): 3.4 µM
- GI50 (TK-10 renal): 0.537 µM
- TGI (TK-10 renal): 8.05 µM
- GI50 (OVCAR-5 ovarian): 2.01 µM
- TGI (OVCAR-5 ovarian): 62.7 µM
- GI50 (PC-3 prostate): 2.02 µM
- TGI (PC-3 prostate): > 100 µM
- GI50 (RPMI-8226 leukemia): 0.308 µM
- TGI (RPMI-8226 leukemia): 1.12 µM
- GI50 (HT29 colon): 0.335 µM
- TGI (HT29 colon): 8.53 µM
- GI50 (SK-OV-3 ovarian): 0.508 µM
- TGI (SK-OV-3 ovarian): 8.81 µM
- GI50 (HCT-15 colon): 0.675 µM
- TGI (HCT-15 colon): 14.8 µM
- GI50 (MALME-3M melanoma): 0.425 µM
- TGI (MALME-3M melanoma): 5.81 µM
- GI50 (SN12C renal): 0.334 µM
- TGI (SN12C renal): 14.1 µM
- GI50 (NCI-H522 lung): 0.308 µM
- TGI (NCI-H522 lung): 1.83 µM
- GI50 (MDA-MB-435): 0.955 µM
- TGI (MDA-MB-435): 22.5 µM
- GI50 (LOX IMVI melanoma): 0.465 µM
- TGI (LOX IMVI melanoma): 12.3 µM
- GI50 (MCF7 breast): 0.338 µM
- TGI (MCF7 breast): 3.86 µM
- GI50 (NCI/ADR-RES ovarian): 0.434 µM
- TGI (NCI/ADR-RES ovarian): 3.55 µM
- GI50 (MOLT-4 leukemia): 0.431 µM
- TGI (MOLT-4 leukemia): 2.69 µM
- GI50 (NCI-H460 lung): 0.561 µM
- TGI (NCI-H460 lung): 12.9 µM
- GI50 (EKVX NSCLC): 0.657 µM
- TGI (EKVX NSCLC): 12.5 µM
- GI50 (HOP-62 NSCLC): 0.487 µM
- TGI (HOP-62 NSCLC): 6.63 µM
- GI50 (CAKI-1 renal): 0.324 µM
- TGI (CAKI-1 renal): > 100 µM
- GI50 (HCC-2998 colon): 0.446 µM
- TGI (HCC-2998 colon): 5.59 µM
- GI50 (SNB-75 CNS): 1.43 µM
- TGI (SNB-75 CNS): 28.6 µM
- GI50 (SK-MEL-2 melanoma): 1.55 µM
- TGI (SK-MEL-2 melanoma): 8.76 µM
- GI50 (SK-MEL-5 melanoma): 0.324 µM
- TGI (SK-MEL-5 melanoma): 1.58 µM
- GI50 (MDA-MB-231 breast): 0.397 µM
- TGI (MDA-MB-231 breast): 20 µM
- GI50 (786-0 renal): 0.35 µM
- TGI (786-0 renal): 18.1 µM
- GI50 (SNB-19 CNS): 0.551 µM
- TGI (SNB-19 CNS): 28.7 µM
- GI50 (IGROV1 ovarian): 0.393 µM
- TGI (IGROV1 ovarian): 2.73 µM
- GI50 (SW-620 colon): 0.493 µM
- TGI (SW-620 colon): 42.6 µM
- GI50 (BT-549 breast): 0.313 µM
- TGI (BT-549 breast): 1.26 µM
- GI50 (UACC-62 melanoma): 0.318 µM
- TGI (UACC-62 melanoma): 2.1 µM
- GI50 (COLO 205 colon): 0.6 µM
- TGI (COLO 205 colon): 3.64 µM
- GI50 (DU-145 prostate): 0.831 µM
- TGI (DU-145 prostate): > 100 µM
- GI50 (SK-MEL-28 melanoma): 0.321 µM
- TGI (SK-MEL-28 melanoma): 1.14 µM
- GI50 (SR leukemia): 0.433 µM
- TGI (SR leukemia): 7.87 µM
- GI50 (KM12 colon): 0.443 µM
- TGI (KM12 colon): 13.3 µM
- GI50 (RXF 393 renal): 0.36 µM
- TGI (RXF 393 renal): 1.74 µM
- GI50 (NCI-H226 lung): 0.996 µM
- TGI (NCI-H226 lung): 9.62 µM
- GI50 (T-47D breast): 0.543 µM
- TGI (T-47D breast): 17.8 µM
- GI50 (ACHN renal): 0.34 µM
- TGI (ACHN renal): 7.97 µM
- GI50 (SF-295 CNS): 3.9 µM
- TGI (SF-295 CNS): > 100 µM
- GI50 (HOP-92 NSCLC): 0.695 µM
- TGI (HOP-92 NSCLC): 51.5 µM
- GI50 (U251 CNS): 0.342 µM
- TGI (U251 CNS): 5.22 µM
- GI50 (K-562 leukemia): 0.393 µM
- TGI (K-562 leukemia): > 100 µM
- GI50 (M14 melanoma): 0.693 µM
- TGI (M14 melanoma): 14.1 µM
